Activity calls are given as the source filed them.
Legend:
Vero [1] = experiment: cells; format: functional; details: Chlorocebus sabaeus
[2] = Counterscreen for activators of the function of SWI/SNF related, matrix associated, actin dependent regulator of chromatin, subfamily a, member 2 (SMARCA2, BRM): Luminescence-based cell-based high throughput dose response assay to identify non-selective compounds using the VP16 reporter assay.; format: functional
[3] = target: SWI/SNF-related matrix-associated actin-dependent regulator of chromatin subfamily A member 2 (Homo sapiens, UniProt P51531); experiment: Luminescence-based cell-based high throughput dose response assay to identify activators of the function of SWI/SNF related, matrix associated, actin dependent regulator of chromatin, subfamily a, member 2 (SMARCA2, BRM).; format: functional
Sequence of SWI/SNF-related matrix-associated actin-dependent regulator of chromatin subfamily A member 2 (P51531 whole entry): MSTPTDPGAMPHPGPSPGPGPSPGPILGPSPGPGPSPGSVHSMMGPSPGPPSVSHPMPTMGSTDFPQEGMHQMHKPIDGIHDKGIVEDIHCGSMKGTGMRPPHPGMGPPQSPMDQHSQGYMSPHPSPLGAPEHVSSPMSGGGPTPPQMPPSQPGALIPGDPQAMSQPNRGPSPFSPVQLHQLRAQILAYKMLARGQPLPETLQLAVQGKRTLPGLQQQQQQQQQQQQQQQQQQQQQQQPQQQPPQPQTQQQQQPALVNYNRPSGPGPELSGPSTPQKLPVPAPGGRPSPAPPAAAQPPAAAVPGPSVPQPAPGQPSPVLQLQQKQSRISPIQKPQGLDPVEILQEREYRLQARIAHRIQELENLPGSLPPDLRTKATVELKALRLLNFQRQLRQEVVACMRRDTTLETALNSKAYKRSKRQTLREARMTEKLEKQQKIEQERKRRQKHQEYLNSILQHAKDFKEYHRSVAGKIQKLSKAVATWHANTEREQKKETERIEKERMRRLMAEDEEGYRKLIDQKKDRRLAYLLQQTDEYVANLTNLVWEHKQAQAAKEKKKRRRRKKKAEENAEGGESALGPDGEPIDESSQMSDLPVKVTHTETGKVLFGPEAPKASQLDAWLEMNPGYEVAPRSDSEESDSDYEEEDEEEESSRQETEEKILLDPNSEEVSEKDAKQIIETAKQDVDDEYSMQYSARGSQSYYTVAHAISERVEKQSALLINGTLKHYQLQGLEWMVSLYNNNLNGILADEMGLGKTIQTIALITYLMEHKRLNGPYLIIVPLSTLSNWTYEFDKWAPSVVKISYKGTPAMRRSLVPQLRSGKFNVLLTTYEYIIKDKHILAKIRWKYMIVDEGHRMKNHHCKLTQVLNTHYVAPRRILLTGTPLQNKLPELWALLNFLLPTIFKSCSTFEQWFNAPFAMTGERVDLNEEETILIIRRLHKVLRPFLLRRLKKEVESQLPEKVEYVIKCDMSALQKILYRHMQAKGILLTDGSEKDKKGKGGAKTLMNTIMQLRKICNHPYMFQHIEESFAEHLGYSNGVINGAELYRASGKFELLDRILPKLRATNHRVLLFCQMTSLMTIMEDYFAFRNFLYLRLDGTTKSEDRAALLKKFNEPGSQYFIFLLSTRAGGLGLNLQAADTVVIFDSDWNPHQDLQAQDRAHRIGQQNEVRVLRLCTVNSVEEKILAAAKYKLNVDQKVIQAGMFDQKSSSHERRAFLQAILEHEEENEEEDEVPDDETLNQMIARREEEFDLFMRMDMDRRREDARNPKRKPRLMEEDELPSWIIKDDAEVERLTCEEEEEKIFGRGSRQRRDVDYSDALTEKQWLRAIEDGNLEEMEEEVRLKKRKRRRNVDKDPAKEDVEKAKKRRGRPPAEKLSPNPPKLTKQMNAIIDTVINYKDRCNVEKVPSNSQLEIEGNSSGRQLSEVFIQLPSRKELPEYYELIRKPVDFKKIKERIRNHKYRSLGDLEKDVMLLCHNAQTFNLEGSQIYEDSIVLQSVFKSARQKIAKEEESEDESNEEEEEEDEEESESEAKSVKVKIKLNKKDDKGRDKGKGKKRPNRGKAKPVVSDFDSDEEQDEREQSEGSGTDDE

Vero [4] = experiment: cells; format: functional, cell-based; details: Chlorocebus sabaeus
[5] = target: 26S proteasome non-ATPase regulatory subunit 14 (Homo sapiens, UniProt O00487); experiment: inhibition of proteasome subunit RPN11 – biochemical, fluorescence polarization, uHTS hits, confirmation (AID 602368); format: functional
Sequence of 26S proteasome non-ATPase regulatory subunit 14 (O00487 whole entry): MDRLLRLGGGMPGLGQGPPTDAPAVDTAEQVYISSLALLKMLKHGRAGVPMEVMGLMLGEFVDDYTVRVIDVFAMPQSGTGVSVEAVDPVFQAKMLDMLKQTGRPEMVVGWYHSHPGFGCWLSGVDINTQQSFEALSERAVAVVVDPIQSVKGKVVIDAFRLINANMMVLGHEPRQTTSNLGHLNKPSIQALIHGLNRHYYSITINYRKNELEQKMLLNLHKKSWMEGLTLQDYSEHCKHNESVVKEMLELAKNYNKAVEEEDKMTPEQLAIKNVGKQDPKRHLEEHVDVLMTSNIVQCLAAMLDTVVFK

[6] = target: 72 kDa type IV collagenase (Homo sapiens, UniProt P08253); experiment: Dose Response validation of uHTS RPN11 inhibitor hits using a MMP-2 Fluorescence assay.; format: functional
Sequence of 72 kDa type IV collagenase (P08253 whole entry): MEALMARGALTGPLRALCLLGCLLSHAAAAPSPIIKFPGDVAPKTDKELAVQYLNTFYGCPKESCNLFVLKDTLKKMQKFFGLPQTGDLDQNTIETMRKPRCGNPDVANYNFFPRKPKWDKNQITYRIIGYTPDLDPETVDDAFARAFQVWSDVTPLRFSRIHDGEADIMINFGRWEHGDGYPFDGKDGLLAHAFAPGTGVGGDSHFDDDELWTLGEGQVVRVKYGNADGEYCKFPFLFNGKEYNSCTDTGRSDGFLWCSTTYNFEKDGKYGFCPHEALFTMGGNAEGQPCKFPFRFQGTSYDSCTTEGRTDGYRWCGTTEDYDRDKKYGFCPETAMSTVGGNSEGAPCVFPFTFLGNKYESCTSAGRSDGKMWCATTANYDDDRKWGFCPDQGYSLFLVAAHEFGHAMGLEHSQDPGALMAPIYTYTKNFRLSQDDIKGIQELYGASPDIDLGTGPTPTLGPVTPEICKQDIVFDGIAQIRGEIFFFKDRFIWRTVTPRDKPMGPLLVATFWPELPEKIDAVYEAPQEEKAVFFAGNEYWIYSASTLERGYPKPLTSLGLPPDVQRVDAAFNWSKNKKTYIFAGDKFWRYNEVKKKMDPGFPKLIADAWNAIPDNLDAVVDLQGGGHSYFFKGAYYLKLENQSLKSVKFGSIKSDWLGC

Prothrombin = Prothrombin (Bos taurus, UniProt P00735); experiment: thrombin protease inhibitors – biochemical, fluorescence polarization, uHTS hits, dose response (AID 602369); format: functional
cells [7] = format: functional, cell-based
[8] = target: Nuclear receptor subfamily 0 group B member 1 (Homo sapiens, UniProt P51843); format: functional, cell-based;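 note: HEK293T cells transfected with SF-1 and DAX-1 plus StAR promoter luciferase reporter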
Sequence of Nuclear receptor subfamily 0 group B member 1 (P51843 whole entry): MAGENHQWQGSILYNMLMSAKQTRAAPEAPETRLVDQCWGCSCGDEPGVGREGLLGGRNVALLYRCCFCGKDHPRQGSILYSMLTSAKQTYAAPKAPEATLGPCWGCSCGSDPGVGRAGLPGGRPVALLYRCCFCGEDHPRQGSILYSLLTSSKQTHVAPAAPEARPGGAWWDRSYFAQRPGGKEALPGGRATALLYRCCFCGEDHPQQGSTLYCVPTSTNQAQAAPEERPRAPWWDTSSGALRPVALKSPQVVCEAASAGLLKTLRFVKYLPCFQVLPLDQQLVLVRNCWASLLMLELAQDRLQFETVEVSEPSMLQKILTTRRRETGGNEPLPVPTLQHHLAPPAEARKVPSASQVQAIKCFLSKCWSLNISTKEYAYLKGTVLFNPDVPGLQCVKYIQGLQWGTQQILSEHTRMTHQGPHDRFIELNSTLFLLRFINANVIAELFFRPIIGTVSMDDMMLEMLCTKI

[9] = target: Melanin-concentrating hormone receptor 1 (Homo sapiens, UniProt Q99705); experiment: Late-stage fluorescence-based counterscreen for antagonists of the G-protein coupled receptor 7 (GPR7): cell-based dose response assay to identify antagonists of the melanin-concentrating hormone receptor 1 (MCHR1) Set 6.; format: functional
Sequence of Melanin-concentrating hormone receptor 1 (Q99705 whole entry): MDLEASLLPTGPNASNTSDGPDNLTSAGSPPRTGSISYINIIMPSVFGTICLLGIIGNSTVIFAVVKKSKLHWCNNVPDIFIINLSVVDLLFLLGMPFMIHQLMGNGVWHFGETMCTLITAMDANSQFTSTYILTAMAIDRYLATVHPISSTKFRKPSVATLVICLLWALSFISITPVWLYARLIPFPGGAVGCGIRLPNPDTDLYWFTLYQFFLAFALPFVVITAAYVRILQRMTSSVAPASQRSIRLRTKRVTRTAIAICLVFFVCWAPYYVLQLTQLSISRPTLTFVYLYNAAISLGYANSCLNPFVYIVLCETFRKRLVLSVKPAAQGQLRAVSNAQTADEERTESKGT

[10] = luciferase reporter signal suppression in cells – H4 neuroglioma cells, luminescence, dose response (AID 1990); format: functional, cell-based
Escherichia coli = experiment: microbe, parasite or virus in culture
cells [11] = format: functional, cell-based; remark: listed apart in the source
[12] = target: T1, Microphthalmia-associated transcription factor (Homo sapiens, UniProt O75030); experiment: reducers of TRPM1 reporter luminescence, concentration series – cell-based, SK-MEL-5, cherry-picked, set 3, MITF inhibitor project, dose response (AID 493073); format: functional;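 note: SK-MEL-5 melanoma cells with luciferase driven by the MITF target TRPM1 promoter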
T1 sequence (O75030 whole entry): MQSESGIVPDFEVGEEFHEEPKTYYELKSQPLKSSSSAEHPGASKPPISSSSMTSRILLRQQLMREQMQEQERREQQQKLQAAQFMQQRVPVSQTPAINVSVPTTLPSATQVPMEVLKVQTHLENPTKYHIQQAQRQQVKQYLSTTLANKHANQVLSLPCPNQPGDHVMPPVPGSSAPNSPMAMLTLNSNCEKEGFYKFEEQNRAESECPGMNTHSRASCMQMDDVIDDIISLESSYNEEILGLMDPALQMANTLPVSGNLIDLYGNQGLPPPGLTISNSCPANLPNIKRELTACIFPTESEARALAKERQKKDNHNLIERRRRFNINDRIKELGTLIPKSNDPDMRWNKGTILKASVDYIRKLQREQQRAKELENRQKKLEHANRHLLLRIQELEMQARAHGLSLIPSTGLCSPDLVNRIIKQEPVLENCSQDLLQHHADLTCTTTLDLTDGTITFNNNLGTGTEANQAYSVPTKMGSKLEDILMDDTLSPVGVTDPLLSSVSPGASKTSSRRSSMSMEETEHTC

INS1 = experiment: INS-1E survival protection against cytokine death – cell-based, luminescence, retest, dose response (AID 449756); format: functional; details: Rattus norvegicus;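 note: cell death triggered by IL-1 beta plus TNF-alpha plus IFN-gamma mixture; protective hits raise ATP signal compared with cytokine alone wells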
cells [13] = format: functional, cell-based; remark: listed apart in the source
[14] = Luminescence Cell-Based Dose Response HTS to Identify Inhibitors of 5'UTR Stem-Loop Driven Prion Protein mRNA Translation in H4 Neuroglioblastoma Cells. [Related pubchem assays: 1827 (Project Summary), 1813 (Primary HTS)]; format: functional
A-375 = experiment: proliferation inhibition in MITF-low A375 cells – cell-based, cherry-pick samples, set 2, counter-screen for MITF modulator project, dose response (AID 540335); format: functional; details: Homo sapiens
[15] = alpha-synuclein stem-loop luciferase translation blockers – H4 neuroglioma cells, luminescence, confirmation (AID 1988); format: functional, cell-based
[16] = target: T2, Rac GTPase-activating protein 1 (Homo sapiens, UniProt Q9H0H5); experiment: blockers of MgcRacGAP-driven Rac1 GTP hydrolysis – biochemical, ADP Hunter fluorescence, primary and confirmatory, confirmation (AID 624330); format: functional
T2 sequence (Q9H0H5 whole entry): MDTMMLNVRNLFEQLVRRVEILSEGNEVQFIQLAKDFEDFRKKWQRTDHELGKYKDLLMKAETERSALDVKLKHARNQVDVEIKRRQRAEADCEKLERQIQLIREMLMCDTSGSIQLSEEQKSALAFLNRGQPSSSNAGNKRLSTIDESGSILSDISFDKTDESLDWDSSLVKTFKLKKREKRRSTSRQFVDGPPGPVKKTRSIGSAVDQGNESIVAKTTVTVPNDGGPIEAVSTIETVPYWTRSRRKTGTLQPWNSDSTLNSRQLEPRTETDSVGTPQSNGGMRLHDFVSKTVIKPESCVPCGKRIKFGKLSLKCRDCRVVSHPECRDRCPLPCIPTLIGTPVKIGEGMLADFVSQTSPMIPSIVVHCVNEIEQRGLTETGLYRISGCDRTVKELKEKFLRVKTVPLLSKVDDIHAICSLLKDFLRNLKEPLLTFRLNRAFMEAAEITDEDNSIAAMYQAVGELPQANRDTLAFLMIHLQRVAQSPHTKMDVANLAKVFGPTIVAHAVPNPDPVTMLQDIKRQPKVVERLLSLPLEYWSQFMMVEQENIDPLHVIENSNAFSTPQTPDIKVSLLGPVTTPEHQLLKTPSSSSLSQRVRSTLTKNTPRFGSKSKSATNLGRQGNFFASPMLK

[17] = bead-based luminescence quenchers, dual-tagged ARNT – biochemical, AlphaScreen, cherry-pick, artefact control for ARNT-TACC3 interaction inhibitor project, dose response (AID 651705); format: functional;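 note: AlphaScreen bead proximity signal that flags compounds interfering with the detection technology; potency reflects signal decrease which marks the compound as an assay artifact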
Large T antigen = Large T antigen (Simian virus 40, UniProt P03070); format: functional, Betapolyomavirus macacae;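 note: Confirmatory-stage PubChem screen for compounds that inhibit SV40 T antigen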
Sequence of Large T antigen (P03070 whole entry): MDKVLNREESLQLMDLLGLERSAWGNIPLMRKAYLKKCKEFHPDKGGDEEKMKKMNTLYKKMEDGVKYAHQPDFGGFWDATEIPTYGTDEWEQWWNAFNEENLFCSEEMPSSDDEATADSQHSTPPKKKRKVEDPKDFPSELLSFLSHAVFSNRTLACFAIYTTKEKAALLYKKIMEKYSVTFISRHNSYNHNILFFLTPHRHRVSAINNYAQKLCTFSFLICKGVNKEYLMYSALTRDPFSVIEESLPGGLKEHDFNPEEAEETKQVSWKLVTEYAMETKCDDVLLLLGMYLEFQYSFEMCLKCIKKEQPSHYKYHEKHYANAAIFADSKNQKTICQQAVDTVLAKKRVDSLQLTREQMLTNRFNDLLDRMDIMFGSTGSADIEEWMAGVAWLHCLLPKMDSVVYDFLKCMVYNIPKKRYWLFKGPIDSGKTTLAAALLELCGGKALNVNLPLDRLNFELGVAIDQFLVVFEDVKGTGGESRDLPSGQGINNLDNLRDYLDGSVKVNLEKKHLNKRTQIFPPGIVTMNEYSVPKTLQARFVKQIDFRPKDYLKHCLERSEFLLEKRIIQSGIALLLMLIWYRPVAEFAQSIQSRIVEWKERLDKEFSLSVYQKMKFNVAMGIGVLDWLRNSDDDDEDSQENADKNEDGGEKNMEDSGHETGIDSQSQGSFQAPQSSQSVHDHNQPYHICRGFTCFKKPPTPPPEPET

[18] = Luminescence Cell-Based Dose Retest to Confirm Inhibitors of Cancer Stem Cells. [Related pubchem assays (depositor defined):AID2717, AID2721]; format: functional; details: Homo sapiens

C=CCN1C(=O)/C(=C/c2ccc(Br)s2)C(=O)NC1=S
CC50 (Vero [1]): 24.2 µM (active)

O=C(NC(=S)Nc1ccc(Br)cn1)c1cccnc1
EC50 [2]: > 91.2 µM (inactive)
EC50 [3]: > 91.2 µM (inactive)

Cc1ccc(S(=O)(=O)n2cccc2/C=C/[N+](=O)[O-])cc1
CC50 (Vero [1]): 9.49 µM (active)
IC50 (Vero [4]): > 25 µM (active)

CSc1nc2c(=S)n(C)c(=O)n(C)c2[nH]1
EC50 [2]: > 91.2 µM (inactive)
EC50 [3]: > 91.2 µM (inactive)

O=C(N/N=C/c1ccccc1)c1ccc(CN2C(=O)c3cccc4cccc2c34)cc1
IC50 [5]: 10.7 µM (active)
IC50 [6]: > 100 µM (inactive)
IC50 (Prothrombin): 69.8 µM (active)

O=C(N/N=C/c1ccsc1)c1ccccn1
IC50 (cells [7]): > 67.5 µM (inactive)
IC50 [8]: > 67.5 µM (inactive)

COC(=O)c1nn(-c2ccc(C(C)C)cc2)c(=O)c(Oc2ccc(OC)cc2)c1Cl
IC50 [9]: 3.57 µM (active)

Cc1cc(C)n(CCC(=O)N/N=C/c2c(O)ccc3ccccc23)n1
EC50 [10]: 11 µM (active)
AC50 (Escherichia coli): 40.1 µM (active)
EC50 (cells [11]): > 350 µM (not active)
AC50 [12]: 45.1 µM (active)
AC50 (INS1): 3.53 µM (active)
EC50 (cells [13]): 9.7 µM (active)
EC50 [14]: 11 µM (active)
AC50 (A-375): 52.3 µM (active)
EC50 [15]: 8.69 µM (active)

C=CCn1c(CNc2ccccc2)nnc1SCC(=O)N/N=C/c1ccc(O)cc1O
IC50 [16]: 68.8 µM (active)
AC50 [17]: 102 µM (active)
IC50 (Large T antigen): > 100 µM (active)
AC50 [18]: 5.46 µM (active)

— ChEMBL document CHEMBL1201862, “PubChem BioAssay data set” (2004)
